How the values were obtained:
[1] = target: T1, Fatty-acid amide hydrolase 1 (Homo sapiens, UniProt O00519); assay: Inhibition of human recombinant FAAH using AMC arachidonoyl amide as substrate after 30 mins by fluorescence assay
T1 sequence (O00519 whole entry): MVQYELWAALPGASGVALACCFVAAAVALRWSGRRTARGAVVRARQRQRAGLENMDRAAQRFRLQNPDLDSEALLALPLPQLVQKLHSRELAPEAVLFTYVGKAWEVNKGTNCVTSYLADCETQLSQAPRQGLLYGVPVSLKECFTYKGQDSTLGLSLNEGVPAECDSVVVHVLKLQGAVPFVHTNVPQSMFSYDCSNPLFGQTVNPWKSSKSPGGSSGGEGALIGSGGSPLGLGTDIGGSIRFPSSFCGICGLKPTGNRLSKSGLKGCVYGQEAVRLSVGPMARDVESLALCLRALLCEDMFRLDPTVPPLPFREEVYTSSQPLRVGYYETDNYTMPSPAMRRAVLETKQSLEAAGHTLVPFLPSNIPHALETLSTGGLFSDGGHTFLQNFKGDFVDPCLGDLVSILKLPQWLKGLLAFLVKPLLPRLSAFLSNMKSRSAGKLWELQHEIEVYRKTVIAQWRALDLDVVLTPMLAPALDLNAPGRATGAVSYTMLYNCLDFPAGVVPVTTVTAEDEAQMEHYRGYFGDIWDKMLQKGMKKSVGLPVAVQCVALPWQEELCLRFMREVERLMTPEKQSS

[2] = target: T1, Fatty-acid amide hydrolase 1; assay: Inhibition of human recombinant FAAH using AMC arachidonoyl amide as substrate preincubated with protein for 0 min followed by substrate addition by fluorescence assay
[3] = target: T1, Fatty-acid amide hydrolase 1; assay: Inhibition of human recombinant FAAH using AMC arachidonoyl amide as substrate preincubated with protein for 30 mins followed by substrate addition by fluorescence assay
[4] = target: T1, Fatty-acid amide hydrolase 1; assay: Inhibition of human recombinant FAAH using AMC arachidonoyl amide as substrate preincubated with protein for 60 mins followed by substrate addition by fluorescence assay
[5] = target: T2, Monoglyceride lipase (Homo sapiens, UniProt Q99685); assay: Inhibition of human recombinant MAGL using 4-nitrophenylacetate as substrate after 30 mins
T2 sequence (Q99685 whole entry): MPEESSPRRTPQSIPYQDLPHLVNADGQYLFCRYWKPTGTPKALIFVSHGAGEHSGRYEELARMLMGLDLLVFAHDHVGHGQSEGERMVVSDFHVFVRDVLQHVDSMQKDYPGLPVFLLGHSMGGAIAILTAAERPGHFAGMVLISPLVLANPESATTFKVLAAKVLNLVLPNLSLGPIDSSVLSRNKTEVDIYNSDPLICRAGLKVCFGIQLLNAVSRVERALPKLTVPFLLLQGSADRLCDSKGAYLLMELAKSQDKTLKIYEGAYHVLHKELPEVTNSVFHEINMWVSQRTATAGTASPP

[6] = species: Homo sapiens; assay: Selectivity index, ratio of IC50 for human recombinant MAGL to IC50 for human recombinant FAAH

| IC50 [1] | SMILES | other results |
| --- | --- | --- |
| 268 nM | CCOC(=O)c1cc(-c2ccc(OC(=O)NC3CCCCC3)cc2)n(-c2ccccc2)n1 |  |
| 103 nM | CCOC(=O)c1cc(-c2cccc(OC(=O)NC3CCCCC3)c2)n(-c2ccc(OC)cc2)n1 |  |
| 353 nM | CCOC(=O)c1cc(-c2cccc(OC(=O)NC3CCCCC3)c2)nn1-c1ccc(Cl)cc1 |  |
| 78 nM | CCOC(=O)c1cc(-c2cccc(OC(=O)NC3CCCCC3)c2)n(-c2ccc([N+](=O)[O-])cc2)n1 |  |
| 132 nM | CCOC(=O)c1cc(-c2cccc(OC(=O)NC3CCCCC3)c2)n(-c2ccc(C(F)(F)F)cc2)n1 |  |
| 70 nM | CCOC(=O)c1cc(-c2cccc(OC(=O)NC3CCCCC3)c2)n(Cc2ccccc2)n1 |  |
| 232 nM | CC(C)NC(=O)c1cc(-c2cccc(OC(=O)NC3CCCCC3)c2)n(-c2ccccc2)n1 |  |
| 174 nM | NC(=O)c1cc(-c2cccc(OC(=O)NC3CCCCC3)c2)n(-c2ccc(Cl)cc2)n1 |  |
| 539 nM | CCOC(=O)c1cc(-c2cccc(OC(=O)NC3CCCCC3)c2)nn1-c1ccccc1 |  |
| 743 nM | COc1ccc(-n2nc(C(N)=O)cc2-c2cccc(OC(=O)NC3CCCCC3)c2)cc1 |  |
| 462 nM | O=C(NC1CCCCC1)Oc1cccc(-c2cc(CO)nn2-c2ccccc2)c1 |  |
| 71 nM | NC(=O)c1cc(-c2ccc(OC(=O)NC3CCCCC3)cc2)n(-c2ccccc2)n1 |  |
| 101 nM | CCCCCCNC(=O)Oc1cccc(-c2cc(C(=O)OCCC)nn2-c2ccccc2)c1 |  |
| 2270 nM | O=C(NC1CCCCC1)Oc1cccc(-c2cc(C(=O)O)nn2-c2ccccc2)c1 |  |
| 592 nM | CCOC(=O)c1cc(-c2ccc(OC(=O)NC3CCCCC3)cc2)nn1-c1ccccc1 |  |
| 123 nM | CCOC(=O)c1cc(-c2cccc(OC(=O)NC3CCCCC3)c2)n(-c2ccc(Cl)cc2Cl)n1 |  |
| 169 nM | NC(=O)c1cc(-c2cccc(OC(=O)NC3CCCCC3)c2)n(-c2ccccc2)n1 |  |
| 88 nM | CCCCCCNC(=O)Oc1cccc(-c2cc(C(=O)OCC)nn2-c2ccccc2)c1 |  |
| 288 nM | O=C(NC1CCCCC1)Oc1cccc(-c2cc(C(=O)NC3CCCCC3)nn2-c2ccccc2)c1 |  |
| 407 nM | CCOC(=O)c1cc(-c2cccc(OC(=O)NC3CCCCC3)c2)nn1-c1ccc(OC)cc1 |  |
| 101 nM | CCOC(=O)c1cc(-c2cccc(OC(=O)NC3CCCCC3)c2)n(CC)n1 |  |
| 303 nM | CCOC(=O)c1cc(-c2cccc(OC(=O)NC3CCCCC3)c2)n(C)n1 |  |
| 448 nM | CCN(CC)C(=O)c1cc(-c2cccc(OC(=O)NC3CCCCC3)c2)n(-c2ccccc2)n1 |  |

Further lines, the molecule ahead of its results:

| SMILES | IC50 [1] | other results |
| --- | --- | --- |
| COc1nn(-c2ccc(NC(=O)OCc3ccccc3)c(C)c2)c(=O)o1 | 14 nM | IC50 [2]: 13 nM; IC50 [3]: 3.5 nM; IC50 [4]: 1.9 nM |
| CCOC(=O)c1cc(-c2ccc(OC(=O)NC3CCCCC3)cc2)n(-c2ccc(Cl)cc2)n1 | 281 nM |  |
| CCOC(=O)c1cc(-c2cccc(OC(=O)NC3CCCCC3)c2)n(-c2ccc(Cl)cc2)n1 | 17 nM | IC50 [2]: 15 nM; IC50 [3]: 17 nM; IC50 [4]: 18 nM; IC50 [5]: 83000 nM; Ratio IC50 [6]: 4900 |
| CCOC(=O)c1cc(-c2ccc(OC(=O)NC3CCCCC3)cc2)n(C)n1 | 81 nM |  |
| CCOC(=O)c1cc(-c2ccc(OC(=O)NC3CCCCC3)cc2)n(CC)n1 | 214 nM |  |
| CCOC(=O)c1cc(-c2cccc(OC(=O)NC3CCCCC3)c2)n(-c2ccc(C)cc2)n1 | 29 nM | IC50 [5]: 34000 nM; Ratio IC50 [6]: 1190 |
| CCOC(=O)c1cc(-c2ccc(OC(=O)NC3CCCCC3)cc2)nn1CC | 603 nM |  |
| CCOC(=O)c1cc(-c2cccc(OC(=O)NC3CCCCC3)c2)nn1C | 227 nM |  |
| CCOC(=O)c1cc(-c2cccc(OC(=O)NC3CCCCC3)c2)nn1CC | 507 nM |  |
| CCCOC(=O)c1cc(-c2cccc(OC(=O)NC3CCCCC3)c2)n(-c2ccccc2)n1 | 27 nM | IC50 [5]: 38000 nM; Ratio IC50 [6]: 1380 |
| COC(=O)c1cc(-c2cccc(OC(=O)NC3CCCCC3)c2)n(-c2ccccc2)n1 | 18 nM | IC50 [5]: 49000 nM; Ratio IC50 [6]: 2750 |
| Cn1nc(C(N)=O)cc1-c1ccc(OC(=O)NC2CCCCC2)cc1 | 209 nM |  |
| NC(=O)c1cc(-c2ccc(OC(=O)NC3CCCCC3)cc2)n(-c2ccc(Cl)cc2)n1 | 172 nM |  |
| CCOC(=O)c1cc(-c2cccc(OC(=O)NC3CCCCC3)c2)n(-c2ccccc2)n1 | 11 nM | IC50 [5]: 21000 nM; Ratio IC50 [6]: 1840 |
| CCOC(=O)c1cc(-c2ccc(OC(=O)NC3CCCCC3)cc2)nn1-c1ccc(Cl)cc1 | 586 nM |  |
| CCOC(=O)c1cc(-c2ccc(OC(=O)NC3CCCCC3)cc2)nn1C | 316 nM |  |
| CCOC(=O)c1cc(-c2ccc(OC(=O)NC3CCCCC3)cc2)nn1-c1ccc(OC)cc1 | 159 nM |  |

— ChEMBL document CHEMBL3421629, “Pyrazole phenylcyclohexylcarbamates as inhibitors of human fatty acid amide hydrolases (FAAH)” (Eur J Med Chem, 2015)
